We go through two molecules from patent US9012439B2, “Use of electrophilic compounds for inducing platelet production or maintaining platelet function” (University of Rochester, priority 2007, dated 2015).

Assay [1] relates to Meg-01 cells. The assay is described as follows: Reactive oxygen species production in Meg-01 cells (carboxy-H2DCFDA, MitoSOX Red). It is filed as cell-based, human. To be noted: Meg-01 cells, 1 h and 6 h; for change in percentage of cells generating mitochondrial superoxide (MitoSOX Red): 10 μM. On the procedure:
Ten μM carboxy-H2DCFDA was added to cells for 20 min at RT. The cells were washed and immediately analyzed by flow cytometry. Five μM of MitoSOX Red dye in HBSS containing Mg^2+ and Ca^2+ was added to the cells for 15 min at 37° C. The cells were washed in HBSS and analyzed by flow cytometry.

The subject of the next assay is C57BL/6 mice. The experiment in a line: Circulating platelet number in unirradiated mice. It is filed as in vivo, mouse (C57BL/6). To be noted: unirradiated C57BL/6 mice, 1 mg/kg IV four consecutive days, d 4. On the procedure: Seven or 8-week-old male C57BL/6 mice (Jackson Laboratories) were either exposed to 5 Gy cesium (Cs^137) total body irradiation (TBI) using a Model 8114 6000 Curie Shepherd Cs^137 irradiator (approximately 3200 Curie sealed Cs^137 source) with a dose rate of […] or left unexposed. Mice (n=4) received intravenous injections of vehicle (8% DMSO) or 15d-PGJ2 (1 mg/kg) or CDDO-Me (250 μg/kg) for 4 consecutive days from day 1 (days 1, 2, 3 and 4 post-irradiation). Blood was obtained from the aorta or the orbital sinus. Platelets were counted prior to radiation exposure and after radiation exposure on day 10, day 22, and day 31 in Example 7, or days 4, 10, 16, and 21 in Example 9 using the Heska® CBC-Diff™ Veterinary Analyzer (Fort Collins, Colo.). Data are expressed as average platelet counts from two separate experiments. For the unirradiated mice, platelets were counted on day 4, day 10, and day 15 in Example 7 or on the same days in Example 9.

Assay [2] concerns Meg-01 cells. The experiment in a line: Platelet production from Meg-01 cells (flow cytometry). The assay is classed as cell-based, human. To be noted: Meg-01 cells, 10 μM, 24 h. On the procedure:
Meg-01 and M07e cells were purchased from the American Type Culture Collection (Rockville, Md.) and Dami cells were a generous gift from Dr. Patricia J. Simpson-Haidaris (University of Rochester). All cells were cultured in RPMI-1640 tissue culture medium (Invitrogen) supplemented with 5% fetal bovine serum (FBS; Invitrogen), 10 mM HEPES (N-2-hydroxyethylpiperazine-N′-2-ethanesulfonic acid; Sigma), 2 mM L-glutamine (Invitrogen), 4.5 g/L glucose (Invitrogen), and 50 μg/mL gentamicin (Invitrogen). M07e cells were also supplemented with 100 ng/mL of granulocyte monocyte-colony stimulating factor (GM-CSF, R&D Systems). All treatments were performed in normal growth media. Dimethyl sulfoxide (DMSO) was used as a vehicle (control) in the experiments described below.
Platelets were isolated from megakaryocytes by centrifugation at 150 xg for 10 min. Supernatants underwent sequential centrifugation (500 xg for 10 min and 1000×g for 10 min). The remaining platelet pellet was fixed then permeabilized with a CD61 or CD41 antibody. 7-AAD (BD Pharmingen) was added for 10 min before analyzing the cells by flow cytometry. Platelets were identified using three well-described parameters (Patel et al., “The Biogenesis of Platelets from Megakaryocyte Proplatelets,” J Clin Invest 115:3348-3354 (2005); Breton-Gorius et al., “Expression of Platelet Proteins During the In Vitro and In Vivo Differentiation of Megakaryocytes and Morphological Aspects of Their Maturation,” Semin Hematol 23:43-67 (1986); Ogura et al., “Establishment of a Novel Human Megakaryoblastic Leukemia Cell Line, MEG-01, With Positive Philadelphia Chromosome,” Blood 66:1384-1392 (1985) and Franks et al., “A Fluorescence Microscopy Method for Quantifying Levels of Prostaglandin Endoperoxide H Synthase-1 and CD-41 in MEG-01 Cells,” Biol Proced Online 3:54-63 (2001), each of which is hereby incorporated by reference in its entirety), size (using normal human platelets as a control), presence of CD61 or CD41 and lack of DNA as determined by the absence of 7-AAD staining Ten thousand platelet events were collected and platelets were quantified by rate (platelet events/second) (Chung et al., “Platelet Activation in Acute, Decompensated Congestive Heart Failure,” Thromb Res 120:709-713 (2007), which is hereby incorporated by reference in its entirety.
A 19 by target sequence was selected to knock down PPARγ. PPARγ was cloned downstream of the RNA polymerase III U6 promoter and subcloned into a FG12 lentiviral vector which expresses green fluorescent protein (GFP) under the Ubiquitin C promoter. HEK 293 cells expressing this siRNA PPARγ had reduced PPARγ protein levels. To make the lentivirus, HEK 293 cells were co-transfected with 3 plasmids: the envelope vector (CMV-VSVG), the transfer vector (FG12-shRNAPPAR), and the packaging construct (pCMVΔ89.2 (gag/pol proteins)). Viral supernatants were collected every 8 h for 2 days and concentrated by ultracentrifugation at 50,000×g for 2 h at 4° C. using a Beckman SW 28 rotor. Viral titers were determined by infection of HeLa cells with serial dilutions of the viral stocks. Meg-01 cells were infected at a multiplicity of infection (MOI) of 20. After 48 h, approximately 56% of the PPARγ siRNA cells were transduced as determined by flow cytometry. The GFP positive (+) cells were then sorted by FACS and grown in RPMI with 5% FBS.

The target of another assay is T1, PPARγ (Homo sapiens, UniProt P37231).
T1 construct: Meg-01 cells were plated at a density of […] cells per well in a E-well plate and transfected; endogenous in cells; host or cells: Meg-01 cells
T1 sequence (P37231 1-505): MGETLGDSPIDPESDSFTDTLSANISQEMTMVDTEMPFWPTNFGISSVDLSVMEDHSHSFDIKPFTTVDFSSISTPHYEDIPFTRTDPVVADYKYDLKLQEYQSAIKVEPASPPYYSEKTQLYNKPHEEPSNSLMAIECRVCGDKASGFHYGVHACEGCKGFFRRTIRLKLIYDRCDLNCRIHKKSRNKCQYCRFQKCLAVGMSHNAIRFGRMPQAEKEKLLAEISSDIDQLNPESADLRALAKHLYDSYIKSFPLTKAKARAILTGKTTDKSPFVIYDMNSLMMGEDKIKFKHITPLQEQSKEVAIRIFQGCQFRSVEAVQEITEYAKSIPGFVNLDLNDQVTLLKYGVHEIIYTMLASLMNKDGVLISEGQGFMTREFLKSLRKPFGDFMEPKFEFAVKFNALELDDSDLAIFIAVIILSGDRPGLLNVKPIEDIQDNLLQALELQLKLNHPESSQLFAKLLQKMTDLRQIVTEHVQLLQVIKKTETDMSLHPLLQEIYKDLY
The assay is described as follows: PPARγ gene reporter analysis (PPRE-luciferase) in Meg-01 cells. The assay is classed as cell-based. To be noted: 10 μM, 24 h after ligand treatment. The method, then: Meg-01 cells were plated at a density of […] cells per well in a […] and transfected, using lipofectamine LTX (Invitrogen), with a PPRE (Peroxisome Proliferator Response Element)-luciferase reporter plasmid containing three copies of the ACO-PPRE (a gift from Dr. B. Seed, Massachusetts General Hospital, Boston, Mass.). […] Transfection efficiency was determined by transfecting the cells with green fluorescent protein (GFP) plasmid and determining the percentage of cells that were GFP+ by flow cytometry. […] Luciferase activity was assessed 24 h after ligand treatment using the Promega Luciferase Assay System, and relative light units (RLU) were determined using a Lumicount Microplate Luminometer (Packard Instrument Co., Meriden, Conn.).

The structures appear in SMILES notation.

As for `CCCCC/C=C\C=C1\C(=O)C[C@@H](O)[C@H]1C/C=C\CCCC(=O)O` [15d-PGD2, 15-deoxy-Δ^12,14-PG22, reference compound], in the assay on Meg-01 cells [1], the “change in percentage of cells generating mitochondrial superoxide (MitoSOX Red)” value was “failed to increase the percentage of cells generating mitochondrial superoxide” and the “change in percentage of cells generating ROS (carboxy-H2DCFDA)” value is listed as “failed to increase the percentage of cells generating ROS”. Further, the “levels of circulating platelets on d 4” value with C57BL/6 mice is “significant increase in the levels of circulating platelets”. The platelet production entry in the assay on Meg-01 cells [2] was “failed to enhance platelet production”.
On to `CCCCC/C=C\C=C1\C(=O)CC[C@@H]1C/C=C\CCCC(=O)O` [9,10 dihydro-15d-PGJ2, reference compound], for which the “PPARγ activation (PPRE-luciferase activity)” value on PPARγ is “activated PPARγ”. Moreover, in the assay on Meg-01 cells [1], the “change in percentage of cells generating mitochondrial superoxide (MitoSOX Red)” value is “failed to increase the percentage of cells generating mitochondrial superoxide” and the “change in percentage of cells generating ROS (carboxy-H2DCFDA)” value is “failed to increase the percentage of cells generating ROS”. Besides, in the assay on Meg-01 cells [2], the platelet production entry is on record as “failed to enhance platelet production”.
